Measured values: patent US8173640B1, “Compositions and methods for treating, reducing, ameliorating, or preventing infections” (Bausch & Lomb Incorporated, priority 2007, dated 2012)

Test system: S. aureus (ATCC 29213)
Assay: MICs of compound having Formula IV and ciprofloxacin alone and in combination
Assay type: cell-based
Settings: against S. aureus; alone
Experimental: Compositions having various combinations of concentrations of compound having Formula IV and cirprofloxacin were tested systematically against S. aureus, P. aeruginosa, and E. coli.

With O=C(O)c1cn(C2CC2)c2cc(N3CCNCC3)c(F)cc2c1=O [Ciprofloxacin, ciprofloxacin] the effectiveness in words was “effective”.
